According to patent publication US12668600B2 (Kumquat Biosciences Inc., priority 2023, dated 2026):

Legend:
Assay type in all cases: biochemical
KRAS G12D = target: T1, KRAS G12D (Homo sapiens, UniProt P01116, G12D); assay: HTRF KRAS-SOS1 interaction assay, KRAS G12D; conditions: binned ≤2 μM / >2 μM, read-out: Inhibition of KRAS G12D (IC50)
T1 construct: made in house; host or cells: E. coli, e.g. BL21 (DE3)
Outline: (§1)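 GST-tagged KRAS (WT or mutant) with anti-GST-Eu donor and His-hSOS1 with anti-6His-XL665 acceptor were combined in 5 mM HEPES pH 7.4, 150 mM NaCl, 1 mM DTT, 0.05% BSA, 0.0025% Igepal. After ~10 min, HTRF was read (ex 337, em 620/665 nm); IC50 from 665/620 ratio.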

KRAS WT = target: T2, KRAS WT (Homo sapiens, UniProt P01116); assay: HTRF KRAS-SOS1 interaction assay, wildtype KRAS; conditions: binned ≤2 μM / >2 μM, read-out: Inhibition of KRAS WT (IC50)
T2 construct: made in house; host or cells: E. coli, e.g. BL21 (DE3)
T2 sequence (P01116 1-188 isoform P01116-2): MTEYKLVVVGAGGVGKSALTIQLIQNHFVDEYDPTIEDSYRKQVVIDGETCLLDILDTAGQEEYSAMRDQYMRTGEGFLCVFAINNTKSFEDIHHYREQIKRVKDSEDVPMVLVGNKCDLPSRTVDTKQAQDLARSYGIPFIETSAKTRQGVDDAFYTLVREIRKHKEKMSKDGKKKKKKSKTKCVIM
Outline: as §1

KRAS G12V = target: T3, KRAS G12V (Homo sapiens, UniProt P01116, G12V); assay: HTRF KRAS-SOS1 interaction assay, KRAS G12V; conditions: binned ≤2 μM / >2 μM, read-out: Inhibition of KRAS G12V (IC50)
T3 construct: made in house; host or cells: E. coli, e.g. BL21 (DE3)
T3 sequence (P01116 1-188 isoform P01116-2 G12V): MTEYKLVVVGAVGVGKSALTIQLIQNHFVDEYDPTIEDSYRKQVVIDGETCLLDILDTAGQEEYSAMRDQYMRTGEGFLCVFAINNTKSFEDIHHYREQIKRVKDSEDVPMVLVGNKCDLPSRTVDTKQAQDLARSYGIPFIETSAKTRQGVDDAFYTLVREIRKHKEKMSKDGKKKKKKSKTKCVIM
Outline: as §1

KRAS G12S = target: T4, KRAS G12S (Homo sapiens, UniProt P01116, G12S); assay: HTRF KRAS-SOS1 interaction assay, KRAS G12S; conditions: binned ≤2 μM / >2 μM, read-out: Inhibition of KRAS G12S (IC50)
T4 construct: made in house; host or cells: E. coli, e.g. BL21 (DE3)
T4 sequence (P01116 1-188 isoform P01116-2 G12S): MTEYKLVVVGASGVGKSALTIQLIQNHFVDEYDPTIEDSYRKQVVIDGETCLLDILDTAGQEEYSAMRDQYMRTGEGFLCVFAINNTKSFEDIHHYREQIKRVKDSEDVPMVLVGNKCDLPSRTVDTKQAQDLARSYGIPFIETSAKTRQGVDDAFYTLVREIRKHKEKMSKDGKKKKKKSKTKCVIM
Outline: as §1

Measured: IC50

T1 sequence (P01116 1-188 isoform P01116-2 G12D): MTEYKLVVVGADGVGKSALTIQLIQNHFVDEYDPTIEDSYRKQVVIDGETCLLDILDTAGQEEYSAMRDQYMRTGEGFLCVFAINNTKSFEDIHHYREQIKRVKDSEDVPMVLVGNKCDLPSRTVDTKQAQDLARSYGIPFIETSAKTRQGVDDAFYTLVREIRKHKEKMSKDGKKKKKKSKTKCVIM

C[C@H](c1ccc(C#N)nc1N)N1CCOc2c(Cl)c(-c3ccc(F)c4sc(N)c(C#N)c34)c(F)c3nc(OC[C@@]45CCCN4C[C@H](F)C5)nc1c23 [Compound 851, 6-amino-5-((1R)-1-(9-(2-amino-3-cyano-7-fluorobenzo[b]thiophen-4-yl)-8-chloro-10-fluoro-2-(((2R,7aS)-2-fluorotetrahydro-1H-pyrrolizin-7a(5H)-yl)methoxy)-5,6-dihydro-4H-[1,4]oxazepino[5,6,7-de]quinazolin-4-yl)ethyl)picolinonitrile]
≤ 2000 nM: all assays above

C[S+]([O-])CCC[C@H](c1cccnc1N)N1CCOc2c(C(F)(F)F)c(-c3ccc(F)c4sc(N)c(C#N)c34)c(F)c3nc(OC[C@@]45CCCN4C[C@H](F)C5)nc1c23 (mixture of isomers) [Compound 691, 2-amino-4-(4-((1R)-1-(2-aminopyridin-3-yl)-4-(methylsulfinyl)butyl)-10-fluoro-2-(((2R,7aS)-2-fluorotetrahydro-1H-pyrrolizin-7a(5H)-yl)methoxy)-8-(trifluoromethyl)-5,6-dihydro-4H-[1,4]oxazepino[5,6,7-de]quinazolin-9-yl)-7-fluorobenzo[b]thiophene-3-carbonitrile]
≤ 2000 nM: all assays above

C[C@H](Oc1nc2c3c(nc(-c4ccc(F)c5sc(N)c(C#N)c45)c(F)c3n1)OCCN2[C@H](C)c1cccnc1N)C1CCCN1C (single isomer, unassigned) [Compound 670]
≤ 2000 nM: all assays above

Cc1c(F)c(N)cc(-c2nc3c4c(nc(OC[C@@]56CCCN5C[C@H](F)C6)nc4c2F)N([C@H](C)c2cccnc2N)C[C@H](C)O3)c1C(F)(F)F (single isomer, unassigned) [Compound 687]
≤ 2000 nM: all assays above

CC[S+]([O-])[C@H]1CN2CCC[C@@]2(COc2nc3c4c(c(Cl)c(-c5ccc(F)c6sc(N)c(C#N)c56)c(F)c4n2)OCCN3[C@H](C)c2cccnc2N)C1 (mixture of isomers) [Compound 906, 2-amino-4-(4-((R)-1-(2-aminopyridin-3-yl)ethyl)-8-chloro-2-(((2R,7aS)-2-(ethylsulfinyl)tetrahydro-1H-pyrrolizin-7a(5H)-yl)methoxy)-10-fluoro-5,6-dihydro-4H-[1,4]oxazepino[5,6,7-de]quinazolin-9-yl)-7-fluorobenzo[b]thiophene-3-carbonitrile]
≤ 2000 nM: all assays above

C[C@H](c1cncnc1N)N1CCOc2c(C(F)(F)F)c(-c3cccc4sc(N)c(C#N)c34)c(F)c3nc(OC[C@@]45CCCN4C[C@H](F)C5)nc1c23 (single isomer, unassigned) [Compound 723]
≤ 2000 nM: all assays above

N#Cc1c(N)sc2c(F)ccc(-c3c(Cl)c4c5c(nc(OC[C@@]67CCCN6C[C@H](F)C7)nc5c3F)N([C@H](C/C=C\C(F)(F)F)c3cccnc3N)CCO4)c12 [Compound 845, 2-amino-4-(4-((R,Z)-1-(2-aminopyridin-3-yl)-5,5,5-trifluoropent-3-en-1-yl)-8-chloro-10-fluoro-2-(((2R,7aS)-2-fluorotetrahydro-1H-pyrrolizin-7a(5H)-yl)methoxy)-5,6-dihydro-4H-[1,4]oxazepino[5,6,7-de]quinazolin-9-yl)-7-fluorobenzo[b]thiophene-3-carbonitrile]
≤ 2000 nM: all assays above

Cc1c(F)c(N)cc(-c2nc3c4c(nc(O[C@@H](C)C5CCCN5C)nc4c2F)N([C@H](C)c2cccnc2N)CCO3)c1C(F)(F)F (single isomer, unassigned) [Compound 748]
≤ 2000 nM: all assays above
